Legend:
Settings in all cases: PC-3
[1] = target: T1, Phosphatidylinositol 5-phosphate 4-kinase type-2 gamma (Homo sapiens) (UniProt Q8TBX8); assay: Inhibition of PIP4K2C in human PC3 cell lysates at 30 uM using desthiobiotin-tagged ATP probe AX9989 followed by trypsinization by LC/MS analysis
T1 sequence (whole entry): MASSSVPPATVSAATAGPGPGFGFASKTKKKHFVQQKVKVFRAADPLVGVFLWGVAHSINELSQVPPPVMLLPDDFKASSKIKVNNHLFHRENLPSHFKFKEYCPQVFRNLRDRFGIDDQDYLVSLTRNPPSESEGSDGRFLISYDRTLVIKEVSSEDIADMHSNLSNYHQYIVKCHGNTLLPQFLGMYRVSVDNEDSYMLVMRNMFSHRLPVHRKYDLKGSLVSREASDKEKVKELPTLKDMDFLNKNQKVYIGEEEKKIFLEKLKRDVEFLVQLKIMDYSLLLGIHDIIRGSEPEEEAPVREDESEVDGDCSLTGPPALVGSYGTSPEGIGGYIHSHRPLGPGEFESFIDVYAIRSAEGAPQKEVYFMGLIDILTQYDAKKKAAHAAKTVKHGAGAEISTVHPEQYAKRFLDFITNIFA

[2] = target: Cyclin-dependent kinase 9 (Homo sapiens) (UniProt P50750); assay: Inhibition of CDK9 in human PC3 cell lysates at 30 uM using desthiobiotin-tagged ATP probe AX9989 followed by trypsinization by LC/MS analysis
[3] = target: T2, Serine/threonine-protein kinase TAO2 (Homo sapiens) (UniProt Q9UL54); assay: Inhibition of TAO2 in human PC3 cell lysates at 30 uM using desthiobiotin-tagged ATP probe AX9989 followed by trypsinization by LC/MS analysis
T2 sequence (whole entry): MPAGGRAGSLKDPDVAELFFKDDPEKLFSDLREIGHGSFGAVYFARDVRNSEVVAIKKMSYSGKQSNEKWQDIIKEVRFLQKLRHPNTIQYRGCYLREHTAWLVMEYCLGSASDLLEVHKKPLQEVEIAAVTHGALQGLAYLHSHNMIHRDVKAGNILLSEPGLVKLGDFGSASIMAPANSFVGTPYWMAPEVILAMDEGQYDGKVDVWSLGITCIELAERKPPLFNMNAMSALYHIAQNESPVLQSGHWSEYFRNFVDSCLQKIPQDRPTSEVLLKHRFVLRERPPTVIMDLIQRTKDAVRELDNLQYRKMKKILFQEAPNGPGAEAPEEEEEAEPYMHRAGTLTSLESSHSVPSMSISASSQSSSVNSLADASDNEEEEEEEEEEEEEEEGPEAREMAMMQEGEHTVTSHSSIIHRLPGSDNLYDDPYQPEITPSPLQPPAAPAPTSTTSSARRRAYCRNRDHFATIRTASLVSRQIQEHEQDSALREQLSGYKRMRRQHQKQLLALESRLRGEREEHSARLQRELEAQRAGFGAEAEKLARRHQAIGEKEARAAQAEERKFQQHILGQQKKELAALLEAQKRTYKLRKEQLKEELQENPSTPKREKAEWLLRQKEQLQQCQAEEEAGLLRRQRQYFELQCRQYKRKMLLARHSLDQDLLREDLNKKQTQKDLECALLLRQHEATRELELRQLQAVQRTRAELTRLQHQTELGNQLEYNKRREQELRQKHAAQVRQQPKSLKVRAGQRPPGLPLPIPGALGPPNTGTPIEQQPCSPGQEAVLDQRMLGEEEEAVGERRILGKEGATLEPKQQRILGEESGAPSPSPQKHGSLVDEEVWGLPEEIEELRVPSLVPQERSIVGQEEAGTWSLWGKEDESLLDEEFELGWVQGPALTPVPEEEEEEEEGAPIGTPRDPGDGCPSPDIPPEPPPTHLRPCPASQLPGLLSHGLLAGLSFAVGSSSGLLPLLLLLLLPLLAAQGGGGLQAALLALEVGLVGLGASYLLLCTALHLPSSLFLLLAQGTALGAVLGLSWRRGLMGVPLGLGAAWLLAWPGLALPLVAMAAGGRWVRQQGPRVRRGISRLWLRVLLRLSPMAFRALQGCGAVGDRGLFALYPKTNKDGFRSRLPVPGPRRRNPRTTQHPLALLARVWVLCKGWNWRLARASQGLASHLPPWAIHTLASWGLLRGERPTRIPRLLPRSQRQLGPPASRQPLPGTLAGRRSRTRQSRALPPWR

[4] = target: T3, Eukaryotic translation initiation factor 2-alpha kinase 3 (Homo sapiens) (UniProt Q9NZJ5); assay: Inhibition of PEK in human PC3 cell lysates at 30 uM using desthiobiotin-tagged ATP probe AX9989 followed by trypsinization by LC/MS analysis
T3 sequence (whole entry): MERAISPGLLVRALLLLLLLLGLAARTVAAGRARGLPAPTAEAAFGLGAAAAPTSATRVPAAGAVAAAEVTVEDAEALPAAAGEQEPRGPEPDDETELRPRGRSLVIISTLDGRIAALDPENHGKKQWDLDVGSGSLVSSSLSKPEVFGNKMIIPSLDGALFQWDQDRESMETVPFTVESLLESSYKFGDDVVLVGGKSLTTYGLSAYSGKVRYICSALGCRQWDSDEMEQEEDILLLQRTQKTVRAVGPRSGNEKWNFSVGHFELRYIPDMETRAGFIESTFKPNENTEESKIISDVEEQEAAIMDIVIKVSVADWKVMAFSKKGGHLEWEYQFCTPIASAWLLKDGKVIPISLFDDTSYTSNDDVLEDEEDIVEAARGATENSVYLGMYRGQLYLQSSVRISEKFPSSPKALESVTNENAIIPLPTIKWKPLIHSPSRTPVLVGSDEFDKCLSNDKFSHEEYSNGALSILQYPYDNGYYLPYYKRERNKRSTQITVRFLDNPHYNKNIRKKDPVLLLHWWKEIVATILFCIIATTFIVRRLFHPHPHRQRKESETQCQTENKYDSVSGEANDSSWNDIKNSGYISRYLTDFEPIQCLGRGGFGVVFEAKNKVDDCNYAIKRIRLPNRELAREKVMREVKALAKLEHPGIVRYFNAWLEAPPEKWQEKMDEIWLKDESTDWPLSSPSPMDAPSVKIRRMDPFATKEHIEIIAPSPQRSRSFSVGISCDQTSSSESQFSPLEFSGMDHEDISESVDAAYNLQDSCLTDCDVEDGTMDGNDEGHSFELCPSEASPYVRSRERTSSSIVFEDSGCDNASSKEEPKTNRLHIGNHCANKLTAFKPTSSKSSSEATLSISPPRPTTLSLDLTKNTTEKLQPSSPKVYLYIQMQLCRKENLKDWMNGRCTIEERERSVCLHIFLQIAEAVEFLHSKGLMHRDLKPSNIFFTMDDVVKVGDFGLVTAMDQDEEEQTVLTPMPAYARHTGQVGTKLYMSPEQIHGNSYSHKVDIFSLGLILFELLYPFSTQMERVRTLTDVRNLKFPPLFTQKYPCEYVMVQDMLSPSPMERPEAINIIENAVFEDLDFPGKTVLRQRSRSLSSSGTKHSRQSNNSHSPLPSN

Cyclin-dependent kinase 9 (Homo sapiens), sequence (P50750 whole entry): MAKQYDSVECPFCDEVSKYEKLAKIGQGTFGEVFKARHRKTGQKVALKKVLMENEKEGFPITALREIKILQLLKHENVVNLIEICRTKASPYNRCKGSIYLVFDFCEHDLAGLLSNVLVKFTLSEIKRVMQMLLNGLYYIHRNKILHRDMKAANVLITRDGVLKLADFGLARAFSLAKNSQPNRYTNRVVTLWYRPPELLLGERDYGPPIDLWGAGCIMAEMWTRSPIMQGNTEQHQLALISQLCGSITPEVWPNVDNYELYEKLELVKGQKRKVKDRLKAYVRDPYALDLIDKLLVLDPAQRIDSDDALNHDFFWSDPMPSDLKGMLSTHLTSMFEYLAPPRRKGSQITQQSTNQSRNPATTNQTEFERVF

Row | inhibition [1] | inhibition [2] | inhibition [3] | inhibition [4] | SMILES
1 | < 35% | < 35% | < 35% | < 35% | c1ccc(CNc2nc3ccccc3n3ccnc23)cc1
2 | 50.9% | 90.7% | 37% | 65% | O[C@H]1CC[C@H](Nc2nc3ccccc3n3ccnc23)CC1
3 | < 35% | 50.7% | < 35% | < 35% | c1ccc2c(c1)nc(NC1CCCCC1)c1nccn12
4 | 52.6% | < 35% | < 35% | < 35% | c1ccc(CCNc2nc3ccccc3n3ccnc23)cc1

— ChEMBL document CHEMBL2417377, “Hit-to-lead optimization and kinase selectivity of imidazo[1,2-a]quinoxalin-4-amine derived JNK1 inhibitors” (Bioorg Med Chem Lett, 2013)
